Source: patent US11053204B2, “Pyrimidinyloxy benzene derivatives as herbicides” (FMC Corporation, priority 2015, dated 2021)

Experiments:
Format in all cases: in vivo
[1] = system: pigweed (Amaranthus retroflexus); assay: Test C postemergence, plant response rating; conditions: for Pigweed plant response rating / pest or weed control at 62 g/ha / pest or weed control at 125 g/ha: scale 0 to 100 (0 no effect, 100 complete control)
How it was run: (§1)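 Pre-emergence: seeds sown in loam soil–sand blend or silt loam and sprayed with test chemicals in a non-phytotoxic solvent mixture with surfactant. Post-emergence: plants 2 to 18 cm (1- to 4-leaf stage) in peat-based potting medium, same formulation. Greenhouse 13 to 15 d; visual rating 0 (no effect) to 100 (complete control) versus controls.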

[2] = system: johnsongrass (Sorghum halepense); assay: Test C postemergence, plant response rating; conditions: for Plant response rating, Johnsongrass: scale 0 to 100; for Johnsongrass plant response rating: scale 0 to 100 (0 no effect, 100 complete control)
How it was run: as §1

[3] = system: barnyardgrass (Echinochloa crus-galli); assay: Test C preemergence, plant response rating; conditions: for Plant response rating, Barnyardgrass / pest or weed control at 62 g/ha / pest or weed control at 125 g/ha / pest or weed control at 16 g/ha / pest or weed control at 31 g/ha: Preemergence; for pest or weed control at 62 g/ha / pest or weed control at 125 g/ha / pest or weed control at 16 g/ha / pest or weed control at 31 g/ha: Echinochloa crus-galli, pre-emergence; for Barnyardgrass plant response rating: preemergence
[4] = system: galium (catchweed bedstraw, Galium aparine); assay: Test C preemergence, plant response rating
[5] = system: johnsongrass (Sorghum halepense); assay: Test C preemergence, plant response rating
[6] = Amaranthus retroflexus, post-emergence, 16 g ai/ha, scale 0 to 100
[7] = Amaranthus retroflexus, post-emergence, 31 g ai/ha, scale 0 to 100
[8] = Amaranthus retroflexus, post-emergence, 62 g ai/ha
[9] = Amaranthus retroflexus, post-emergence, 125 g ai/ha

Row | Structure (SMILES) | Plant response rating, Pigweed ([1]; 31 g ai/ha, scale 0 to 100) | Pigweed plant response rating ([1]; 62 g ai/ha) | Pigweed plant response rating ([1]; 125 g ai/ha) | Plant response rating, Johnsongrass ([2]; 16 g ai/ha) | Plant response rating, Johnsongrass ([2]; 31 g ai/ha) | Johnsongrass plant response rating ([2]; 62 g ai/ha) | Johnsongrass plant response rating ([2]; 125 g ai/ha) | pest or weed control at 16 g/ha [1, 6] [%] | pest or weed control at 31 g/ha [1, 7] [%] | pest or weed control at 62 g/ha [1, 8] [%] | pest or weed control at 125 g/ha [1, 9] [%] | pest or weed control at 62 g/ha ([3]; 62 g ai/ha, scale of 0 to 100) [%] | pest or weed control at 125 g/ha ([3]; 125 g ai/ha, scale of 0 to 100) [%] | pest or weed control at 16 g/ha ([3]; 16 g ai/ha, scale 0 to 100) [%] | pest or weed control at 31 g/ha ([3]; 31 g ai/ha, scale 0 to 100) [%] | Plant response rating, Galium ([4]; 16 g ai/ha, scale 0 to 100) | Plant response rating, Galium ([4]; 31 g ai/ha, scale 0 to 100) | Plant response rating, Galium ([4]; 62 g ai/ha, scale of 0 to 100) | Plant response rating, Galium ([4]; 125 g ai/ha, scale of 0 to 100) | further results
1 | O=C(OCC(F)(F)F)c1c(Br)cccc1Oc1ncc(Cl)cn1 [Compound 35] | 70 | 90 | 98 | 0 | 5 | 10 | 10 |  |  |  |  |  |  |  |  |  |  |  |  | Plant response rating, Pigweed ([1]; 16 g ai/ha, scale 0 to 100): 80
2 | O=C(CCC(F)(F)F)c1c(Br)cccc1Oc1ncc(Cl)cn1 [Compound 92] | 90 | 98 | 100 |  |  |  |  |  |  |  |  |  |  |  |  |  |  |  |  | Plant response rating, Pigweed ([1]; 16 g ai/ha, scale of 0 to 100): 85; Plant response rating, Barnyardgrass ([3]; 125 g ai/ha, scale of 0 to 100): 100; Plant response rating, Barnyardgrass ([3]; 16 g ai/ha, scale 0 to 100): 35; Plant response rating, Barnyardgrass ([3]; 31 g ai/ha, scale 0 to 100): 85; Plant response rating, Barnyardgrass ([3]; 62 g ai/ha, scale 0 to 100): 98
3 | O=C(OCCC(F)(F)F)c1c(Cl)cccc1Oc1ncc(Cl)cn1 [Compound 15, 3,3,3-trifluoropropyl 2-chloro-6-[(5-chloro-2-pyrimidinyl)oxy]benzoate] |  |  |  |  |  |  |  | 90 | 90 | 95 | 98 | 100 | 100 | 10 | 85 |  |  |  |  | 
4 | O=C(OCCCC(F)(F)F)c1c(Br)cccc1Oc1ncc(Cl)cn1 [Compound 20, 4,4,4-trifluorobutyl 2-bromo-6-[(5-chloro-2-pyrimidinyl)oxy]benzoate] |  |  |  |  |  |  |  | 85 | 95 | 98 | 95 | 30 | 85 | 0 | 5 | 10 | 0 | 80 | 95 | 
5 | CCCOC(=O)c1c(Br)cccc1Oc1ncc(Cl)cn1 [Compound 13, propyl 2-bromo-6-[(5-chloro-2-pyrimidinyl)oxy]benzoate] |  |  |  |  |  |  |  | 75 | 70 |  |  |  |  | 10 | 40 |  |  |  |  | pest or weed control at 4 g/ha ([1]; Amaranthus retroflexus, post-emergence, 4 g ai/ha, scale of 0 to 100): 30%; pest or weed control at 8 g/ha ([1]; Amaranthus retroflexus, post-emergence, 8 g ai/ha, scale of 0 to 100): 60%; Barnyardgrass plant response rating ([3]; 4 g ai/ha, scale 0 to 100): 0; Barnyardgrass plant response rating ([3]; 8 g ai/ha, scale 0 to 100): 0
6 | O=C(OCCC(F)(F)F)c1c(Br)cccc1Oc1ncc(Cl)cn1 [Compound 26, 3,3,3-trifluoropropyl 2-bromo-6-[(5-chloro-2-pyrimidinyl)oxy]benzoate] |  |  |  | 10 | 20 | 20 | 25 | 75 | 98 | 98 | 100 | 100 | 100 | 40 | 75 | 5 | 90 | 95 | 100 | Plant response rating, Johnsongrass ([5]; 16 g ai/ha, scale 0 to 100): 55; Plant response rating, Johnsongrass ([5]; 31 g ai/ha, scale 0 to 100): 50; Plant response rating, Johnsongrass ([5]; 62 g ai/ha, scale 0 to 100): 80; Plant response rating, Johnsongrass ([5]; 125 g ai/ha, scale of 0 to 100): 98
7 | O=C(OCC(F)(F)C(F)(F)F)c1c(Br)cccc1Oc1ncc(Cl)cn1 [Compound 23, 2,2,3,3,3-pentafluoropropyl 2-bromo-6-[(5-chloro-2-pyrimidinyl)oxy]benzoate] |  |  |  | 0 | 15 | 15 | 20 | 60 | 75 | 70 | 85 |  |  |  |  |  |  |  |  | 
8 | C=CCOC(=O)c1c(Br)cccc1Oc1ncc(Cl)cn1 [Compound 22, 2-propen-1-yl 2-bromo-6-[(5-chloro-2-pyrimidinyl)oxy]benzoate] |  |  |  |  |  |  |  | 60 | 70 | 70 | 95 |  |  |  |  |  |  |  |  | 
9 | O=C(CCCC(F)(F)F)c1c(Br)cccc1Oc1ncc(Cl)cn1 [Compound 77] | 98 | 100 | 100 |  |  |  |  |  |  |  |  |  |  |  |  | 0 | 0 | 98 | 98 | Plant response rating, Pigweed ([1]; 16 g ai/ha, scale of 0 to 100): 95; Plant response rating, Barnyardgrass ([3]; 62 g ai/ha, scale of 0 to 100): 98; Plant response rating, Barnyardgrass ([3]; 125 g ai/ha, scale of 0 to 100): 100; Plant response rating, Barnyardgrass ([3]; 16 g ai/ha, scale 0 to 100): 20; Plant response rating, Barnyardgrass ([3]; 31 g ai/ha, scale 0 to 100): 60
10 | N#CCCOC(=O)c1c(Br)cccc1Oc1ncc(Cl)cn1 [Compound 7] | 40 | 60 | 70 |  |  |  |  |  |  |  |  |  |  |  |  |  |  |  |  | Plant response rating, Pigweed ([1]; 16 g ai/ha, scale 0 to 100): 35
11 | N#Cc1cccc(Oc2ncc(Cl)cn2)c1C(=O)OCCC(F)(F)F [Compound 30] |  |  |  |  |  |  |  |  |  |  |  |  |  |  |  | 80 | 10 | 60 | 85 | Plant response rating, Johnsongrass ([5]; 16 g ai/ha, scale 0 to 100): 0; Plant response rating, Johnsongrass ([5]; 31 g ai/ha, scale 0 to 100): 0; Plant response rating, Johnsongrass ([5]; 62 g ai/ha, scale 0 to 100): 0; Plant response rating, Johnsongrass ([5]; 125 g ai/ha, scale of 0 to 100): 15; Plant response rating, Barnyardgrass ([3]; 62 g ai/ha, scale of 0 to 100): 10; Plant response rating, Barnyardgrass ([3]; 125 g ai/ha, scale of 0 to 100): 25; Plant response rating, Barnyardgrass ([3]; 16 g ai/ha, scale 0 to 100): 10; Plant response rating, Barnyardgrass ([3]; 31 g ai/ha, scale 0 to 100): 15
12 | CC(CC(F)(F)F)OC(=O)c1c(Br)cccc1Oc1ncc(Cl)cn1 (stereo not shown) [Compound 16, 3,3,3-trifluoro-1-methylpropyl 2-bromo-6-[(5-chloro-2-pyrimidinyl)oxy]benzoate] |  |  |  |  |  |  |  | 50 | 75 | 85 | 50 | 30 | 75 | 0 | 15 |  |  |  |  | 
13 | C=CCCOC(=O)c1c(Br)cccc1Oc1ncc(Cl)cn1 [Compound 21, 3-buten-1-yl 2-bromo-6-[(5-chloro-2-pyrimidinyl)oxy]benzoate] |  |  |  |  |  |  |  | 85 | 75 | 90 | 90 | 90 | 98 | 10 | 55 |  | 0 | 5 | 100 | 
14 | N#Cc1cccc(Oc2ncc(Cl)cn2)c1CCCC(F)(F)F [Compound 72] | 85 | 85 | 100 | 5 | 10 | 10 | 10 |  |  |  |  |  |  |  |  | 5 | 75 | 90 | 100 | Plant response rating, Johnsongrass ([5]; 16 g ai/ha, scale 0 to 100): 5; Plant response rating, Johnsongrass ([5]; 31 g ai/ha, scale 0 to 100): 65; Plant response rating, Johnsongrass ([5]; 62 g ai/ha, scale 0 to 100): 70; Plant response rating, Johnsongrass ([5]; 125 g ai/ha, scale of 0 to 100): 100; Plant response rating, Pigweed ([1]; 16 g ai/ha, scale 0 to 100): 80; Plant response rating, Barnyardgrass ([3]; 62 g ai/ha, scale of 0 to 100): 80; Plant response rating, Barnyardgrass ([3]; 125 g ai/ha, scale of 0 to 100): 100; Plant response rating, Barnyardgrass ([3]; 16 g ai/ha, scale 0 to 100): 25; Plant response rating, Barnyardgrass ([3]; 31 g ai/ha, scale 0 to 100): 90
15 | N#Cc1cccc(Oc2ncc(Cl)cn2)c1CCCCC(F)(F)F [Compound 73, 3-[(5-chloro-2-pyrimidinyl)oxy]-2-(5,5,5-trifluoropentyl)benzonitrile] |  |  |  | 5 | 10 | 20 | 20 | 90 | 85 | 100 | 100 | 100 | 100 | 15 | 80 | 5 | 10 | 100 | 100 | Plant response rating, Johnsongrass ([5]; 16 g ai/ha, scale 0 to 100): 0; Plant response rating, Johnsongrass ([5]; 31 g ai/ha, scale 0 to 100): 40; Plant response rating, Johnsongrass ([5]; 62 g ai/ha, scale 0 to 100): 80; Plant response rating, Johnsongrass ([5]; 125 g ai/ha, scale of 0 to 100): 95
